{"source": "ChEMBL document CHEMBL5696442", "about": "“Discovery of type II inhibitors of TGFβ-activated kinase 1 (TAK1) and mitogen-activated protein kinase kinase kinase kinase 2 (MAP4K2)” (J Med Chem, 2015)", "key": {"[1]": {"biological_target": "Misshapen-like kinase 1 (Homo sapiens) (UniProt Q8N4C8)", "test": "Inhibition of MINK (unknown origin) at 10 uM by Ambit Kinomescan binding assay"}, "[2]": {"biological_target": "Casein kinase I isoform gamma-3 (Homo sapiens) (UniProt Q9Y6M4)", "test": "Inhibition of CSNK1G3 (unknown origin) at 10 uM by Ambit Kinomescan binding assay"}, "[3]": {"biological_target": "Glycogen synthase kinase-3 beta (Homo sapiens) (UniProt P49841)", "sequence (P49841 whole entry, looked up)": "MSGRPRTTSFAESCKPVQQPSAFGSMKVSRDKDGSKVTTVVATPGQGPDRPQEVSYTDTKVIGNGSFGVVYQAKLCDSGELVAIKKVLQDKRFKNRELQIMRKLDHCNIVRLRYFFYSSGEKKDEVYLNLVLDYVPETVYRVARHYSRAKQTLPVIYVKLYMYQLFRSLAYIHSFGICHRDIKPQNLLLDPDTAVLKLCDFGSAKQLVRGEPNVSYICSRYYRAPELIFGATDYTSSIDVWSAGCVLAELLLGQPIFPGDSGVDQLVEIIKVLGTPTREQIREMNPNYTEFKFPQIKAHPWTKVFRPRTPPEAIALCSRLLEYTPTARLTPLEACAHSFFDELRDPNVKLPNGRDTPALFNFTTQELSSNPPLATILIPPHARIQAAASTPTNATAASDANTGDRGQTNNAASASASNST", "test": "Inhibition of GSK3B (unknown origin) at 10 uM by Ambit Kinomescan binding assay"}, "[4]": {"biological_target": "Tyrosine-protein kinase Fgr (Homo sapiens) (UniProt P09769)", "sequence (P09769 2-529 limits assumed)": "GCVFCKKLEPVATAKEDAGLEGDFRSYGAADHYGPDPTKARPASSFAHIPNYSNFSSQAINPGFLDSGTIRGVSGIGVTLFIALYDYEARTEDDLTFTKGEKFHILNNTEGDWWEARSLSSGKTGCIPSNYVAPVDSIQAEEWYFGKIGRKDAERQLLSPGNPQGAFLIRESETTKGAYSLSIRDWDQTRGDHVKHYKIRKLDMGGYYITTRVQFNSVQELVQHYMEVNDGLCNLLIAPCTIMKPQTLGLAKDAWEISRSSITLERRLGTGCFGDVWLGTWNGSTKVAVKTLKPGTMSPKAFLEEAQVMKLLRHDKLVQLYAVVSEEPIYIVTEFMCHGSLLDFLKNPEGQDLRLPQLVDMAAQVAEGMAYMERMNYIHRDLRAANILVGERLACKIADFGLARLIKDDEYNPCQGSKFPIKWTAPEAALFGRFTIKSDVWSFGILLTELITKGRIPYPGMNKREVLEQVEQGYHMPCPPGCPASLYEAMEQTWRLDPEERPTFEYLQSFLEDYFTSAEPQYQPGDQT", "test": "Inhibition of FGR (unknown origin) at 10 uM by Ambit Kinomescan binding assay relative to control"}, "[5]": {"biological_target": "Focal adhesion kinase 1 (Homo sapiens) (UniProt Q05397)", "sequence (Q05397 2-1052 limits assumed)": "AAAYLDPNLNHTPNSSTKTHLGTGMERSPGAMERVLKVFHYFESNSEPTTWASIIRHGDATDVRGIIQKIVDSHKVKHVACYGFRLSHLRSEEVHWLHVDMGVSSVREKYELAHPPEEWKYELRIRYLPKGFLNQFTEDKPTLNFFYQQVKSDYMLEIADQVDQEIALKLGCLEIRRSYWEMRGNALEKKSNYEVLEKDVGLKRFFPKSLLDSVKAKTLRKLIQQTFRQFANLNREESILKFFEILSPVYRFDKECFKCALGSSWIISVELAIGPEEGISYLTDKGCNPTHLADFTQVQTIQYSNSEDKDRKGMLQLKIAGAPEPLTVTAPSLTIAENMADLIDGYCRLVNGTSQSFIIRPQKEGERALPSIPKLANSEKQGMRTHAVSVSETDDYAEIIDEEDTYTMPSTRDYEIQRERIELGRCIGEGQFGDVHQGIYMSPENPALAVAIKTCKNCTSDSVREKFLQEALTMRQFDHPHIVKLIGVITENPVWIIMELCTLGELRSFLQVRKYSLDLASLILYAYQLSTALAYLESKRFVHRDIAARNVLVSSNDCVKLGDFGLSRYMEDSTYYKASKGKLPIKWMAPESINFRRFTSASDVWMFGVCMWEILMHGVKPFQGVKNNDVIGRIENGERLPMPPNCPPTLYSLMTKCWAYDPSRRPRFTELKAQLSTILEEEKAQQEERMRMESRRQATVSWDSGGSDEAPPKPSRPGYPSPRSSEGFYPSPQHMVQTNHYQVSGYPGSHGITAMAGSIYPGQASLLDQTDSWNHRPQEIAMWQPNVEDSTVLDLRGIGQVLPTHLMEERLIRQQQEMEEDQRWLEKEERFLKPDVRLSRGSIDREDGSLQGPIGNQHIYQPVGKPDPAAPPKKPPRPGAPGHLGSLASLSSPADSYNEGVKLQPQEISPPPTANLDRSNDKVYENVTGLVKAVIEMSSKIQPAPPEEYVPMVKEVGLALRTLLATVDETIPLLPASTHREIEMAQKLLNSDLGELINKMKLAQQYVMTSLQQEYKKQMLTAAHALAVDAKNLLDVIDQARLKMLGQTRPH", "test": "Inhibition of FAK K1 labeling site in human Huh-7 cells at 10 uM by KiNativ Profiling analysis relative to control", "assay_type": "cell-based"}, "RAW": {"test_system": "RAW", "test": "Inhibition of LPS induced p105 phosphorylation in mouse RAW cells preincubated for 1 hr followed by LPS stimulation and measured after 30 mins by Western blot analysis", "assay_type": "functional, cell-based", "settings": "dose 0.01-10 µM"}, "[6]": {"biological_target": "TRAF2 and NCK-interacting protein kinase (Homo sapiens) (UniProt Q9UKE5)", "test": "Inhibition of ZC2/TNIK K2 labeling site in human Huh-7 cells at 1 uM by KiNativ Profiling analysis relative to control", "assay_type": "cell-based"}, "[7]": {"biological_target": "Protein kinase C theta type (Homo sapiens) (UniProt Q04759)", "sequence (Q04759 whole entry, looked up)": "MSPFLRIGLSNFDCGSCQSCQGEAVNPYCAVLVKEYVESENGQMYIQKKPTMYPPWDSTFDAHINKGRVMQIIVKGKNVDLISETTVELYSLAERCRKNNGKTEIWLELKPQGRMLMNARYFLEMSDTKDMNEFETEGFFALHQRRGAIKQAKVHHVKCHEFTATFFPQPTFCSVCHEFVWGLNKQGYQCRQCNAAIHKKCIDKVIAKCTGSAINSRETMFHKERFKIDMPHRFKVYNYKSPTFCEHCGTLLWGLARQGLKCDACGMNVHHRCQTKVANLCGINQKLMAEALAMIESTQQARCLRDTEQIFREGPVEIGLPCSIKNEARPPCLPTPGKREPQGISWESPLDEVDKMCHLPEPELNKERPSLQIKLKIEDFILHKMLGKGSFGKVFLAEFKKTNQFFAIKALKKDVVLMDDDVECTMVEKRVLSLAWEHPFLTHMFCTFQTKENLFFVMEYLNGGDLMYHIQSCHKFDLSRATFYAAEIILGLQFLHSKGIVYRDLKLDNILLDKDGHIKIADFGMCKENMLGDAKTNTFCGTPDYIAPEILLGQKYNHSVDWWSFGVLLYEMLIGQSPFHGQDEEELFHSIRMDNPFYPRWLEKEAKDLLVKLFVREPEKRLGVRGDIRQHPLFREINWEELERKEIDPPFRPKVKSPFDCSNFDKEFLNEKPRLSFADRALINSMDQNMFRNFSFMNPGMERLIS", "test": "Inhibition of PRKCQ (unknown origin) at 10 uM by Ambit Kinomescan binding assay"}, "[8]": {"biological_target": "T1, Serine/threonine-protein kinase TBK1 (Homo sapiens) (UniProt Q9UHD2)", "T1 sequence (whole entry)": "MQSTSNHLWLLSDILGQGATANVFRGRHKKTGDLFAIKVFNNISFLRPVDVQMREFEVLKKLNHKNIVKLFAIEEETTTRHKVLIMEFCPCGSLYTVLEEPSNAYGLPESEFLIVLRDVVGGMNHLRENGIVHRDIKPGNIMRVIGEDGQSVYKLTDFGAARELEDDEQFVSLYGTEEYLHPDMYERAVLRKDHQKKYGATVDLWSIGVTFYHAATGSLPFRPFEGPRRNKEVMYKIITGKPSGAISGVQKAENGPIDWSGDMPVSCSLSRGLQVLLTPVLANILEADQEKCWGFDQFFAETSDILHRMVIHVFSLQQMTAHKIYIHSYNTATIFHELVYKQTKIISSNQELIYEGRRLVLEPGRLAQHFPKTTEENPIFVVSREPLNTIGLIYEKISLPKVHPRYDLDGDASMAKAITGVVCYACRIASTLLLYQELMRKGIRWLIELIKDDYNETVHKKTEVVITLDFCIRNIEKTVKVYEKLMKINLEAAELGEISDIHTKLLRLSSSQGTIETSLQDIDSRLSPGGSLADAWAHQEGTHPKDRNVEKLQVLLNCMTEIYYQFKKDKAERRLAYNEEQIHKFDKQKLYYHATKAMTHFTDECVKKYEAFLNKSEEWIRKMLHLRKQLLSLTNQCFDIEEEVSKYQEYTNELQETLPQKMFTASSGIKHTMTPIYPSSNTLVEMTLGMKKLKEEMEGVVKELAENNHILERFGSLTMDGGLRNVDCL", "test": "Inhibition of TBK1 K2 labeling site in human Huh-7 cells at 1 uM by KiNativ Profiling analysis relative to control", "assay_type": "cell-based"}, "[9]": {"biological_target": "Mitogen-activated protein kinase kinase kinase kinase 4 (Homo sapiens, UniProt O95819)", "test": "Inhibition of ZC1/HGK Lys2 labeling site in human Huh-7 cells at 1 uM by KiNativ Profiling analysis relative to control", "assay_type": "cell-based"}, "[10]": {"biological_target": "T2, Mitogen-activated protein kinase 12 (Homo sapiens) (UniProt P53778)", "T2 sequence (whole entry)": "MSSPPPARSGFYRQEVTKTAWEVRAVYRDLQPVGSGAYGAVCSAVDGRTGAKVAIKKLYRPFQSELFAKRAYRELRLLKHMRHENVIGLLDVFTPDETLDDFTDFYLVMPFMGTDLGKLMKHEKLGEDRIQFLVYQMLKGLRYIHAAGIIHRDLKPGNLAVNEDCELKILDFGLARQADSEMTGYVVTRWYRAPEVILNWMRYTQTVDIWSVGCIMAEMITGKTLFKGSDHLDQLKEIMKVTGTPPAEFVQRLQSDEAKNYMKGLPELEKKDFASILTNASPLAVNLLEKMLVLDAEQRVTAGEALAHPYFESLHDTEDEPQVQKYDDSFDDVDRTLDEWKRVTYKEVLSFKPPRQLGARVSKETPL", "test": "Inhibition of p38gamma Lys2 labeling site in human Huh-7 cells at 1 uM by KiNativ Profiling analysis relative to control", "assay_type": "cell-based"}, "[11]": {"biological_target": "T3, Serine/threonine-protein kinase Sgk3 (Homo sapiens) (UniProt Q96BR1)", "T3 sequence (whole entry)": "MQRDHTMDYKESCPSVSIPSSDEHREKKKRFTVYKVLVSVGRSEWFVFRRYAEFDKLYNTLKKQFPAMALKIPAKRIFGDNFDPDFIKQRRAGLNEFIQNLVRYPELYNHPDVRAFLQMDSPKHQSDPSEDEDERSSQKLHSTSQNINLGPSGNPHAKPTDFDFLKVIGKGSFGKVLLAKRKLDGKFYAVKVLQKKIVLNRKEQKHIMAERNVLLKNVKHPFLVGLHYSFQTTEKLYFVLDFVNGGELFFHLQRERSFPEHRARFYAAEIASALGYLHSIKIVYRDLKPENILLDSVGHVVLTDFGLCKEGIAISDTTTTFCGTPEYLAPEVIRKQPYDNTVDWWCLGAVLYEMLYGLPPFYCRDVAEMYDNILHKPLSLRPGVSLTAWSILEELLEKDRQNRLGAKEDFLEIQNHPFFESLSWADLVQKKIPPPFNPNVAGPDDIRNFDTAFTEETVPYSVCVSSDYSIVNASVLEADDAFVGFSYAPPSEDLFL", "test": "Inhibition of SGK3 Lys1 labeling site in human Huh-7 cell lysate at 1 uM by KiNativ Profiling analysis relative to control", "assay_type": "subcellular"}, "[12]": {"biological_target": "Cyclin-dependent kinase 16 (Homo sapiens) (UniProt Q00536)", "test": "Inhibition of PCTK1 (unknown origin) at 1 uM by Ambit Kinomescan binding assay relative to control"}, "[13]": {"biological_target": "Discoidin domain-containing receptor 2 (Homo sapiens) (UniProt Q16832)", "sequence (Q16832 whole entry, the tested form may be a part)": "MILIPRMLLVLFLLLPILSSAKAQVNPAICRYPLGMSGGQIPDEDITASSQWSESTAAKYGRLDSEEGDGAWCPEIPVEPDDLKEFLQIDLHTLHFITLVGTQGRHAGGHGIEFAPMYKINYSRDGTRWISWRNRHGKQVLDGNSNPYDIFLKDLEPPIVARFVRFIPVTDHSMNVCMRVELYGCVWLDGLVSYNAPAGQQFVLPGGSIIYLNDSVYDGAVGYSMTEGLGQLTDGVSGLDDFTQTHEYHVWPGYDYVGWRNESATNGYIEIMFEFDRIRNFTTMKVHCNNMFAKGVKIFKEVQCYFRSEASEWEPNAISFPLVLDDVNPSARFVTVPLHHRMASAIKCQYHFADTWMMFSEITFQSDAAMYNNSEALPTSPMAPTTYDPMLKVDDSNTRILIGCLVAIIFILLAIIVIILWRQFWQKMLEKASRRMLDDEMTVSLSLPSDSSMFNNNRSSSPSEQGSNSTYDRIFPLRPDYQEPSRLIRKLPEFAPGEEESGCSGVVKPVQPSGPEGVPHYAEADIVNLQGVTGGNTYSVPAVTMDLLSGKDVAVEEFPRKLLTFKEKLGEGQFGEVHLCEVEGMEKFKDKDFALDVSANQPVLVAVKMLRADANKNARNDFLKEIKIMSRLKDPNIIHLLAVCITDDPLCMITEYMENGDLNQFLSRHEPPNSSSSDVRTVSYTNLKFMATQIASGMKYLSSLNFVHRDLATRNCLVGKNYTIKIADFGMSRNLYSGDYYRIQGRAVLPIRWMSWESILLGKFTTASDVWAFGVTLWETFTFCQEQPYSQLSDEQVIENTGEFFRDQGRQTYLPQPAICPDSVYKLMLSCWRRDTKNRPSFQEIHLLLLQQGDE", "test": "Inhibition of DDR2 (unknown origin) at 1 uM by Ambit Kinomescan binding assay relative to control; values are per cent of control"}, "[14]": {"test_system": "Epidermal growth factor receptor (Homo sapiens), P00533 [L858R,T790M]", "sequence (P00533 whole entry T790M/L858R, looked up)": "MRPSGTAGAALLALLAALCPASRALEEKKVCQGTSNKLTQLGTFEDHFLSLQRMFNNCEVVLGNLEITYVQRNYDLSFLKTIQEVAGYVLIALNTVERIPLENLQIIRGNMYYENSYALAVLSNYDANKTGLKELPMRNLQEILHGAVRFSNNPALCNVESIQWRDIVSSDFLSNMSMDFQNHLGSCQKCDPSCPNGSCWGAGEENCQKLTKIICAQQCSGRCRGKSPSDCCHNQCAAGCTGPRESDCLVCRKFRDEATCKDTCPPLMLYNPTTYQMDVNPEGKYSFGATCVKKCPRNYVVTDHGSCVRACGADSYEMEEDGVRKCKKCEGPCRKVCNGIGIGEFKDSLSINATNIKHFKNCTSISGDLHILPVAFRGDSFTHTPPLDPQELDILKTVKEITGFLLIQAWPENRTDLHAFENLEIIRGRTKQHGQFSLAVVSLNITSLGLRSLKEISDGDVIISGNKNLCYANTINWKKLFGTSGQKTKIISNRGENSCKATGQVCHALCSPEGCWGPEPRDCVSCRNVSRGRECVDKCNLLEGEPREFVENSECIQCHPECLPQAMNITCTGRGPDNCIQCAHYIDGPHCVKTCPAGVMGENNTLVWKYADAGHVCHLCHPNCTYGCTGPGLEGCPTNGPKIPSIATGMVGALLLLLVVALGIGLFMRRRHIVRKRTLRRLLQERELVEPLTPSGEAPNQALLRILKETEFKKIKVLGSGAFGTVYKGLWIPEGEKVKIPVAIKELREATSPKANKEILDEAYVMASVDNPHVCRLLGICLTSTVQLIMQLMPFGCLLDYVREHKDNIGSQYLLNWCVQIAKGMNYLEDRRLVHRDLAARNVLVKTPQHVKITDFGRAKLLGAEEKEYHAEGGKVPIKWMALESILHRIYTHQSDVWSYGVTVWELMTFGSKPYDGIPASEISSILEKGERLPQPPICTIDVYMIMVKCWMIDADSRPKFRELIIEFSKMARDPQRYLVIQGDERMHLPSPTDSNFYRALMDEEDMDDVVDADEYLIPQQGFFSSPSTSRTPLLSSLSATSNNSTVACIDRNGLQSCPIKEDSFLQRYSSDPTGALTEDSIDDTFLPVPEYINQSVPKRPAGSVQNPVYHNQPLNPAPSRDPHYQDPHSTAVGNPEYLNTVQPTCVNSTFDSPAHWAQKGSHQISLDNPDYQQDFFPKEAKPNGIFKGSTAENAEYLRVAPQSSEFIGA", "test": "Inhibition of EGFR L858R/T790M mutant (unknown origin) at 1 uM by Ambit Kinomescan binding assay relative to control"}, "[15]": {"test_system": "Tyrosine-protein kinase ABL1 (Homo sapiens), P00519 [E255K]", "test": "Inhibition of phosphorylated ABL1 E255K mutant (unknown origin) at 1 uM by Ambit Kinomescan binding assay relative to control; values are per cent of control"}, "[16]": {"biological_target": "Diacylglycerol kinase alpha (Homo sapiens) (UniProt P23743)", "test": "Inhibition of DGKA ATP labeling site harbouring in human A-375 cells at 5 uM by KiNativ Profiling analysis relative to control", "assay_type": "cell-based"}}, "note": "The source made the active and inactive calls. The rule behind the calls is not given here.", "data": [{"smiles": "CCN1CCN(Cc2ccc(NC(=O)c3ccc(C)c(Oc4ccnc5[nH]ccc45)c3)cc2C(F)(F)F)CC1", "values": [{"measurement": "inhibition", "setting": "[1]", "result": "inactive"}, {"measurement": "inhibition", "setting": "[2]", "result": "inactive"}, {"measurement": "inhibition", "setting": "[3]", "result": "inactive"}, {"measurement": "inhibition", "setting": "[4]", "result": 1.2, "unit": "%"}, {"measurement": "inhibition", "setting": "[5]", "result": 13, "unit": "%"}, {"measurement": "inhibition", "setting": "RAW", "result": "Dose-Dependent Effect"}, {"measurement": "inhibition", "setting": "[6]", "result": 23, "unit": "%"}, {"measurement": "inhibition", "setting": "[7]", "result": "inactive"}, {"measurement": "inhibition", "setting": "[8]", "result": 17.7, "unit": "%"}]}, {"smiles": "CNc1cc(Oc2cc(C(=O)Nc3cc(N4CCN(C)CC4)cc(C(F)(F)F)c3)ccc2C)ncn1", "values": [{"measurement": "inhibition", "setting": "[9]", "result": 9.7, "unit": "%"}, {"measurement": "inhibition", "setting": "[10]", "result": 13, "unit": "%"}, {"measurement": "inhibition", "setting": "[11]", "result": 3.5, "unit": "%"}]}, {"smiles": "CCN1CCN(Cc2ccc(NC(=O)c3ccc(C)c(/C=C/c4cnc5[nH]ccc5c4OC)c3)cc2C(F)(F)F)CC1", "values": [{"measurement": "inhibition", "setting": "[12]", "result": 100, "unit": "%"}, {"measurement": "residual activity", "setting": "[13]", "result": 0.2, "unit": "%"}, {"measurement": "inhibition", "setting": "[14]", "result": 100, "unit": "%"}, {"measurement": "percent of control", "setting": "[15]", "result": 0.85, "unit": "%"}, {"measurement": "inhibition", "setting": "[16]", "result": -1.8, "unit": "%"}]}]}
